pEC50: −log10 of the molar value. Numbered stars: 1 amine (or outer) side, 2 acyl side, 3 side chain; on linkers, the order of the positions; unused ones are H or OH. Square brackets hold non-standard residues; d marks the D form. Peptide text beside a SMILES is read from it. X1 = CC(C)(CN([C@@H](CCC(N)=O)C(=O)[*:2])[*:1])NC(=O)[C@@H](N)Cc1c[nH]cn1; Aib = CC(C)(N)C(=O)O
Assays:
[1] = target: Glucagon receptor (Mus musculus, UniProt Q61606); experiment: Agonist activity at mouse GCGR expressed in CHO cells assessed as increase in cAMP accumulation; format: cell-based
[2] = target: T1, Glucagon-like peptide 1 receptor (Mus musculus, UniProt O35659); experiment: Agonist activity at mouse GLP-1R expressed in CHO cells assessed as increase in cAMP accumulation; format: cell-based
T1 sequence (O35659 whole entry): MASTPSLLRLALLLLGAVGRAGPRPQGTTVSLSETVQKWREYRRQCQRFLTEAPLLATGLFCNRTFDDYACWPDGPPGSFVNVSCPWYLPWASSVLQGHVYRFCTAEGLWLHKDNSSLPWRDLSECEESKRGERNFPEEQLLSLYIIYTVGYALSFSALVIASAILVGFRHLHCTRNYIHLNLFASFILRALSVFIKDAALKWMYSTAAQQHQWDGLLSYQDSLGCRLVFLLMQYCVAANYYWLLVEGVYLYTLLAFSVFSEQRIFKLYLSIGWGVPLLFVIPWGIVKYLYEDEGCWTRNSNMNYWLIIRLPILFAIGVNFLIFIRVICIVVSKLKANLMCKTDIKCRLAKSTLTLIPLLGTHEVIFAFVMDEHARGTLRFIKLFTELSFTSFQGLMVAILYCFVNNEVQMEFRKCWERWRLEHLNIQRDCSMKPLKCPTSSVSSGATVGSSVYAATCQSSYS

Chain of Glucagon receptor (Q61606 whole entry): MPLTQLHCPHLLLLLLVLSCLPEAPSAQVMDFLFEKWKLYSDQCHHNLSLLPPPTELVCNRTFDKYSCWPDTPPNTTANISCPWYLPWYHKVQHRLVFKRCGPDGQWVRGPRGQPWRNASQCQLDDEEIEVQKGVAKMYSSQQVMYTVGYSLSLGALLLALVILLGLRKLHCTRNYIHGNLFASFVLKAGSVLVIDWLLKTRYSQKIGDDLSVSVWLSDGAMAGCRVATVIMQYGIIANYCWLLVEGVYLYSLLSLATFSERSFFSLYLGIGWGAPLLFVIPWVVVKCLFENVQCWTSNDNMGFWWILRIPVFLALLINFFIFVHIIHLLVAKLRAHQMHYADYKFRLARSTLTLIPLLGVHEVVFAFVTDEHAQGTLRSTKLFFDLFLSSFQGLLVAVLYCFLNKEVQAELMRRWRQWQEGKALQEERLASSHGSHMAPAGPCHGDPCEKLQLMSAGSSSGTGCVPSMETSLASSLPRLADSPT

Structure (SMILES): CC[C@H](C)[C@H](NC(=O)[C@H](CC(N)=O)NC(=O)[C@H](CC(N)=O)NC(=O)[C@H](CCCNC(=N)N)NC(=O)[C@H](CC(N)=O)NC(=O)[C@H](CCCNC(=N)N)NC(=O)[C@H](CCCCN)NC(=O)[C@@H](NC(=O)[C@H](CC(N)=O)NC(=O)[C@H](CCSC)NC(=O)[C@H](CC(C)C)NC(=O)[C@H](Cc1c[nH]c2ccccc12)NC(=O)[C@H](CCC(N)=O)NC(=O)[C@@H](NC(=O)[C@H](Cc1ccccc1)NC(=O)[C@H](CC(=O)O)NC(=O)[C@H](CCCCN)NC(=O)[C@H](C)NC(=O)[C@H](CCCNC(=N)N)NC(=O)[C@H](CCCNC(=N)N)NC(=O)[C@H](CCC(=O)O)NC(=O)[C@H](CC(=O)O)NC(=O)[C@H](CC(C)C)NC(=O)[C@H](Cc1ccc(O)cc1)NC(=O)[C@H](CCCCN)NC(=O)[C@H](CO)NC(=O)[C@H](Cc1ccc(O)cc1)NC(=O)[C@H](CC(=O)O)NC(=O)[C@H](CO)NC(=O)[C@@H](NC(=O)[C@H](Cc1ccccc1)NC(=O)[C@@H](NC(=O)CNC(=O)[C@H](CCC(N)=O)NC(=O)C(C)(C)NC(=O)[C@@H](N)Cc1c[nH]cn1)[C@@H](C)O)[C@@H](C)O)C(C)C)[C@@H](C)O)C(=O)N[C@@H](C)C(N)=O (H-H[Aib]QGTFTSDYSKYLDERRAKDFVQWLMNTKRNRNNIA-NH2)
- pEC50 [1]: 8.47
- pEC50 [2]: 8.80

Structure (SMILES): CC[C@H](C)[C@H](NC(=O)[C@H](CC(N)=O)NC(=O)[C@H](CC(N)=O)NC(=O)[C@H](CCCNC(=N)N)NC(=O)[C@H](CC(N)=O)NC(=O)[C@H](CCCNC(=N)N)NC(=O)[C@H](CCCCN)NC(=O)[C@@H](NC(=O)[C@H](CC(N)=O)NC(=O)[C@H](CCSC)NC(=O)[C@H](CC(C)C)NC(=O)[C@H](Cc1c[nH]c2ccccc12)NC(=O)[C@H](CCC(N)=O)NC(=O)[C@@H](NC(=O)[C@H](Cc1ccccc1)NC(=O)[C@H](CCC(=O)O)NC(=O)[C@H](CCCCN)NC(=O)[C@H](C)NC(=O)[C@H](CCCNC(=N)N)NC(=O)[C@H](CCCCN)NC(=O)[C@H](CCC(=O)O)NC(=O)[C@H](CC(=O)O)NC(=O)[C@H](CC(C)C)NC(=O)[C@H](Cc1ccc(O)cc1)NC(=O)[C@H](CCCCN)NC(=O)[C@H](CO)NC(=O)[C@H](Cc1ccc(O)cc1)NC(=O)[C@H](CC(=O)O)NC(=O)[C@H](CCC(=O)O)NC(=O)[C@@H](NC(=O)[C@H](Cc1ccccc1)NC(=O)[C@@H](NC(=O)CNC(=O)[C@H](CCC(N)=O)NC(=O)C(C)(C)NC(=O)[C@@H](N)Cc1c[nH]cn1)[C@@H](C)O)[C@@H](C)O)C(C)C)[C@@H](C)O)C(=O)N[C@@H](C)C(N)=O (H-H[Aib]QGTFTEDYSKYLDEKRAKEFVQWLMNTKRNRNNIA-NH2)
- pEC50 [1]: 8.04
- pEC50 [2]: 7.75

Structure (SMILES): CC[C@H](C)[C@H](NC(=O)[C@H](CC(N)=O)NC(=O)[C@H](CC(N)=O)NC(=O)[C@H](CCCNC(=N)N)NC(=O)[C@H](CC(N)=O)NC(=O)[C@H](CCCNC(=N)N)NC(=O)[C@H](CCCCN)NC(=O)[C@@H](NC(=O)[C@H](CC(N)=O)NC(=O)[C@H](CCSC)NC(=O)[C@H](CC(C)C)NC(=O)[C@H](Cc1c[nH]c2ccccc12)NC(=O)[C@H](CCC(=O)O)NC(=O)[C@@H](NC(=O)[C@H](Cc1ccccc1)NC(=O)[C@H](CCC(=O)O)NC(=O)[C@H](CCCCN)NC(=O)[C@H](C)NC(=O)[C@H](CCCNC(=N)N)NC(=O)[C@H](CCCCN)NC(=O)[C@H](CCC(=O)O)NC(=O)[C@H](CC(=O)O)NC(=O)[C@H](CC(C)C)NC(=O)[C@H](Cc1ccc(O)cc1)NC(=O)[C@H](CCCCN)NC(=O)[C@H](CO)NC(=O)[C@H](Cc1ccc(O)cc1)NC(=O)[C@H](CC(=O)O)NC(=O)[C@H](CO)NC(=O)[C@@H](NC(=O)[C@H](Cc1ccccc1)NC(=O)[C@@H](NC(=O)CNC(=O)[C@H](CCC(N)=O)NC(=O)C(C)(C)NC(=O)[C@@H](N)Cc1c[nH]cn1)[C@@H](C)O)[C@@H](C)O)C(C)C)[C@@H](C)O)C(=O)N[C@@H](C)C(N)=O (H-H[Aib]QGTFTSDYSKYLDEKRAKEFVEWLMNTKRNRNNIA-NH2)
- pEC50 [1]: 8.84
- pEC50 [2]: 8.87

Structure (SMILES): CSCC[C@H](NC(=O)[C@H](CC(C)C)NC(=O)[C@H](Cc1c[nH]c2ccccc12)NC(=O)[C@H](CCC(N)=O)NC(=O)[C@@H](NC(=O)[C@H](Cc1ccccc1)NC(=O)[C@H](CCC(=O)O)NC(=O)[C@H](CCCCN)NC(=O)[C@H](C)NC(=O)[C@H](CCCNC(=N)N)NC(=O)[C@H](CCCCN)NC(=O)[C@H](CCC(=O)O)NC(=O)[C@H](CC(=O)O)NC(=O)[C@H](CC(C)C)NC(=O)[C@H](Cc1ccc(O)cc1)NC(=O)[C@H](CCCCN)NC(=O)[C@H](CO)NC(=O)[C@H](Cc1ccc(O)cc1)NC(=O)[C@H](CC(=O)O)NC(=O)[C@H](CO)NC(=O)[C@@H](NC(=O)[C@H](Cc1ccccc1)NC(=O)[C@@H](NC(=O)CNC(=O)[C@H](CCC(N)=O)NC(=O)C(C)(C)NC(=O)[C@@H](N)Cc1c[nH]cn1)[C@@H](C)O)[C@@H](C)O)C(C)C)C(=O)N[C@@H](CC(N)=O)C(=O)N[C@H](C(=O)NCC(=O)N1CCC[C@H]1C(=O)N[C@@H](CO)C(=O)N[C@@H](CO)C(=O)NCC(=O)N[C@@H](C)C(=O)N1CCC[C@H]1C(=O)N[C@@H](CO)C(=O)N[C@@H](CS)C(N)=O)[C@@H](C)O
- pEC50 [1]: 9.23
- pEC50 [2]: 9.40

Structure (SMILES): CC[C@H](C)[C@H](NC(=O)[C@H](CC(N)=O)NC(=O)[C@H](CC(N)=O)NC(=O)[C@H](CCCNC(=N)N)NC(=O)[C@H](CC(N)=O)NC(=O)[C@H](CCCNC(=N)N)NC(=O)[C@H](CCCCN)NC(=O)[C@@H](NC(=O)[C@H](CC(N)=O)NC(=O)[C@H](CCSC)NC(=O)[C@H](CC(C)C)NC(=O)[C@H](Cc1c[nH]c2ccccc12)NC(=O)[C@H](CCC(N)=O)NC(=O)[C@@H](NC(=O)[C@H](Cc1ccccc1)NC(=O)[C@H](CCC(=O)O)NC(=O)[C@H](CCCCN)NC(=O)[C@H](C)NC(=O)[C@H](CCCNC(=N)N)NC(=O)[C@H](CCCCN)NC(=O)[C@H](CCC(=O)O)NC(=O)[C@H](CC(=O)O)NC(=O)[C@H](CC(C)C)NC(=O)[C@H](Cc1ccc(O)cc1)NC(=O)[C@H](CCCCN)NC(=O)[C@H](CO)NC(=O)[C@H](Cc1ccc(O)cc1)NC(=O)[C@H](CC(=O)O)NC(=O)[C@H](CO)NC(=O)[C@@H](NC(=O)[C@H](Cc1ccccc1)NC(=O)[C@@H](NC(=O)CNC(=O)[C@H](CCC(N)=O)NC(=O)C(C)(C)NC(=O)[C@@H](N)Cc1c[nH]cn1)[C@@H](C)O)[C@@H](C)O)C(C)C)[C@@H](C)O)C(=O)N[C@@H](C)C(N)=O
- pEC50 [1]: 9.03
- pEC50 [2]: 9.21

Structure (SMILES): CSCC[C@H](NC(=O)[C@H](CC(C)C)NC(=O)[C@H](Cc1c[nH]c2ccccc12)NC(=O)[C@H](CCC(N)=O)NC(=O)[C@@H](NC(=O)[C@H](Cc1ccccc1)NC(=O)[C@H](CCC(=O)O)NC(=O)[C@H](CCCCN)NC(=O)[C@H](C)NC(=O)[C@H](CCCNC(=N)N)NC(=O)[C@H](CCCCN)NC(=O)[C@H](CCC(=O)O)NC(=O)[C@H](CC(=O)O)NC(=O)[C@H](CC(C)C)NC(=O)[C@H](Cc1ccc(O)cc1)NC(=O)[C@H](CCCCN)NC(=O)[C@H](CO)NC(=O)[C@H](Cc1ccc(O)cc1)NC(=O)[C@H](CC(=O)O)NC(=O)[C@H](CO)NC(=O)[C@@H](NC(=O)[C@H](Cc1ccccc1)NC(=O)[C@@H](NC(=O)CNC(=O)[C@H](CCC(N)=O)NC(=O)C(C)(C)NC(=O)[C@@H](N)Cc1c[nH]cn1)[C@@H](C)O)[C@@H](C)O)C(C)C)C(=O)N[C@@H](CC(N)=O)C(=O)N[C@H](C(=O)NCC(=O)N1CCC[C@H]1C(=O)N[C@@H](CO)C(=O)N[C@@H](CO)C(=O)NCC(=O)N[C@@H](C)C(=O)N1CCC[C@H]1C(=O)N[C@@H](CO)C(N)=O)[C@@H](C)O
- pEC50 [1]: 9.28
- pEC50 [2]: 9.44

Structure (SMILES): CSCC[C@H](NC(=O)[C@H](CC(C)C)NC(=O)[C@H](Cc1c[nH]c2ccccc12)NC(=O)[C@H](CS)NC(=O)[C@@H](NC(=O)[C@H](Cc1ccccc1)NC(=O)[C@H](CCC(=O)O)NC(=O)[C@H](CCCCN)NC(=O)[C@H](C)NC(=O)[C@H](CCCNC(=N)N)NC(=O)[C@H](CCCCN)NC(=O)[C@H](CCC(=O)O)NC(=O)[C@H](CC(=O)O)NC(=O)[C@H](CC(C)C)NC(=O)[C@H](Cc1ccc(O)cc1)NC(=O)[C@H](CCCCN)NC(=O)[C@H](CO)NC(=O)[C@H](Cc1ccc(O)cc1)NC(=O)[C@H](CC(=O)O)NC(=O)[C@H](CO)NC(=O)[C@@H](NC(=O)[C@H](Cc1ccccc1)NC(=O)[C@@H](NC(=O)CNC(=O)[C@H](CCC(N)=O)NCC(C)(C)NC(=O)[C@@H](N)Cc1c[nH]cn1)[C@@H](C)O)[C@@H](C)O)C(C)C)C(=O)N[C@@H](CC(N)=O)C(=O)N[C@H](C(=O)NCC(=O)N1CCC[C@H]1C(=O)N[C@@H](CO)C(=O)N[C@@H](CO)C(=O)NCC(=O)N[C@@H](C)C(=O)N1CCC[C@H]1C(=O)N[C@@H](CO)C(N)=O)[C@@H](C)O (H-[X1]GTFTSDYSKYLDEKRAKEFVCWLMNTGPSSGAPS-NH2)
- pEC50 [1]: 9.17
- pEC50 [2]: 9.35

Structure (SMILES): CC[C@H](C)[C@H](NC(=O)[C@H](CC(N)=O)NC(=O)[C@H](CC(N)=O)NC(=O)[C@H](CCCNC(=N)N)NC(=O)[C@H](CC(N)=O)NC(=O)[C@H](CCCNC(=N)N)NC(=O)[C@H](CCCCN)NC(=O)[C@@H](NC(=O)[C@H](CC(N)=O)NC(=O)[C@H](CCSC)NC(=O)[C@H](CC(C)C)NC(=O)[C@H](Cc1c[nH]c2ccccc12)NC(=O)[C@H](CCC(N)=O)NC(=O)[C@@H](NC(=O)[C@H](Cc1ccccc1)NC(=O)[C@H](CC(=O)O)NC(=O)[C@H](CCC(N)=O)NC(=O)[C@H](C)NC(=O)[C@H](CCCNC(=N)N)NC(=O)[C@H](CCCNC(=N)N)NC(=O)[C@H](CCC(=O)O)NC(=O)[C@H](CC(=O)O)NC(=O)[C@H](CC(C)C)NC(=O)[C@H](Cc1ccc(O)cc1)NC(=O)[C@H](CCCCN)NC(=O)[C@H](CO)NC(=O)[C@H](Cc1ccc(O)cc1)NC(=O)[C@H](CC(=O)O)NC(=O)[C@H](CO)NC(=O)[C@@H](NC(=O)[C@H](Cc1ccccc1)NC(=O)[C@@H](NC(=O)CNC(=O)[C@H](CCC(N)=O)NC(=O)C(C)(C)NC(=O)[C@@H](N)Cc1c[nH]cn1)[C@@H](C)O)[C@@H](C)O)C(C)C)[C@@H](C)O)C(=O)N[C@@H](C)C(N)=O (H-H[Aib]QGTFTSDYSKYLDERRAQDFVQWLMNTKRNRNNIA-NH2)
- pEC50 [1]: 8.21
- pEC50 [2]: 8.46

From ChEMBL document CHEMBL5244248, “A novel long-acting oxyntomodulin analogue eliminates diabetes and obesity in mice” (Eur J Med Chem, 2020)
